Patent US5102873A (priority 1989, dated 1992)
“And” between values parts separate entries of the source, which are not always exact repeats. Equal entries are not always repeated.

Legend:
vaccinia virus = assay: microbe, parasite or virus in culture; assay type: cell-based; details: for IC50: Orthopoxvirus vaccinia, Vero, read-out: ID50 (inhibitory dose 50; 50% reduction in virus replication), vaccinia virus in Vero cells, called MIC50; for TI (therapeutic index, MTC/ID50) / Virus Rating (VR): Vero cells; for TI (therapeutic index, MTC/ID50): TI>50 indicates a useful compound; for Virus Rating (VR): VR >=1.0 significant, 0.5-0.9 marginal, <0.5 inactive, repeat lines are repeat tests
[1] = Cytotoxicity of test compound to Vero host cells (minimum toxic concentration); details: monkey, MTC (minimum toxic concentration), footnote: lowest concentration giving 50% reduction in percent survival of viable host cells

For `N=c1c2ncn([C@@H]3O[C@H](CO)[C@@H](O)[C@H]3O)c2ncn1OCc1ccccc1Cl.[O-][Cl+3]([O-])([O-])O` [Compound 2o, 1-(2-Chlorobenzyloxy)adenosine, perchloric acid salt], the IC50 (vaccinia virus) was 1.01 µg/mL, the “TI (therapeutic index, MTC/ID50)” value (vaccinia virus) was 318 and 251 and the MCC [1] was over 320 µg/mL.
For `Cc1ccc(COn2cnc3c(ncn3[C@@H]3O[C@H](CO)[C@@H](O)[C@H]3O)c2=N)cc1C.[O-][Cl+3]([O-])([O-])O` [Compound 2z, 1-(3,4-Dimethylbenzyloxy)adenosine, perchloric acid salt], the IC50 (vaccinia virus) was 0.32 µg/mL, the “TI (therapeutic index, MTC/ID50)” value (vaccinia virus) was > 1000 and > 1760 and the MCC [1] was 320 µg/mL.
With `Cc1cc(C)cc(COn2cnc3c(ncn3[C@@H]3O[C@H](CO)[C@@H](O)[C@H]3O)c2=N)c1.[O-][Cl+3]([O-])([O-])O` [Compound 2aa, 1-(3,5-Dimethylbenzyloxy)adenosine, perchloric acid salt] the IC50 (vaccinia virus) was 0.45 µg/mL, the “TI (therapeutic index, MTC/ID50)” value (vaccinia virus) was 710 and > 1000 and the MCC [1] was 320 µg/mL.
For `N=c1c2ncn([C@@H]3O[C@H](CO)[C@@H](O)[C@H]3O)c2ncn1OCc1ccc(F)cc1F.[O-][Cl+3]([O-])([O-])O` [Compound 2j, 1-(2,4-Difluorobenzyloxy)adenosine, perchloric acid salt], the IC50 (vaccinia virus) was 0.31 µg/mL, the “TI (therapeutic index, MTC/ID50)” value (vaccinia virus) was 1029 and the “Virus Rating (VR)” value (vaccinia virus) was over 2.4. The MCC [1] was over 320 µg/mL.
For `N=c1c2ncn([C@@H]3O[C@H](CO)[C@@H](O)[C@H]3O)c2ncn1OCc1ccccc1C(F)(F)F.[O-][Cl+3]([O-])([O-])O` [Compound 2l, 1-(2-Trifluoromethylbenzyloxy)adenosine, perchloric acid salt], the IC50 (vaccinia virus) was 0.82 µg/mL, the “TI (therapeutic index, MTC/ID50)” value (vaccinia virus) was 391 and the “Virus Rating (VR)” value (vaccinia virus) was over 2.2. It also gave an MCC [1] of over 320 µg/mL.
For `N=c1c2ncn([C@@H]3O[C@H](CO)[C@@H](O)[C@H]3O)c2ncn1OCc1ccccc1[N+](=O)[O-].[O-][Cl+3]([O-])([O-])O` [Compound 2q, 1-(2-Nitrobenzyloxy)adenosine, perchloric acid salt], the IC50 (vaccinia virus) was 1.03 µg/mL, the “TI (therapeutic index, MTC/ID50)” value (vaccinia virus) was 310 and 181 and the MCC [1] was over 320 µg/mL.
